pEC50: −log10 of the molar value.

The melting point is the temperature, or range, at which the solid turns liquid.

In series [1] the target is T1, BK channels heterologously expressed in Xenopus laevis oocytes (Homo sapiens, UniProt Q12791).
T1 construct: expressed in transfected cells; host or cells: Xenopus laevis oocytes
The experiment in a line: BK channel opening activity, two-electrode voltage clamp in Xenopus laevis oocytes. The class given is cell-based. The protocol: In this example the BK channel opening activity of Compound 12 (i.e. N-[5-Chloro-2-(1H-tetrazol-5-yl)-phenyl]-4-dipropylsulfamoyl-benzamide) is determined using BK channels heterologously expressed in Xenopus laevis oocytes.
The electrical current through the BK channel was measured using conventional two-electrode voltage clamp. BK currents were activated by repeating ramp protocols. In brief, the membrane potential was continuously changed from −120 mV to +120 mV within a 2 s period. The threshold for BK activation is approximately +30 mV under control conditions. Compounds were applied for 100 s during which the ramp protocol was repeated 10 times with 10 s intervals. In between the ramp protocols the membrane potential was clamped at −80 mV. The first three compound applications were control blanks where the current level is allowed to stabilize.
In order to evaluate the ability of the compounds to shift the BK activation curve towards lower membrane potentials, the BK current was transformed into conductance by using Ohm's law g=I/(Ememb−Erev), where g is the conductance, I is the current, Ememb is the membrane potential and Erev is the reversal potential. The extracellular solution for these experiments contained 2.5 mM K+ and the intracellular K+ concentration of an oocyte was estimated to be 100 mM. Under those conditions, Nernst equation predicts a reversal potential of Erev=−93.2 mV. The control conductance level at a membrane potential of +100 mV was calculated, and the compound effect was evaluated as the potential difference, ΔV, to the membrane potential at which the same conductance level was obtained in the presence of compound.
The concentration response curve for this potential difference was fitted to the sigmoidal logistic equation: ΔV=ΔVmax/(1+(EC50/[compound])^n), where ΔVmax represents the maximal left shift of the BK activation curve, EC50 is the concentration causing a half maximal response, and n is the slope coefficient.
For orientation: Two-electrode voltage clamp is typically applied to oocytes expressing channels or transporters.

T1 sequence (Q12791 whole entry): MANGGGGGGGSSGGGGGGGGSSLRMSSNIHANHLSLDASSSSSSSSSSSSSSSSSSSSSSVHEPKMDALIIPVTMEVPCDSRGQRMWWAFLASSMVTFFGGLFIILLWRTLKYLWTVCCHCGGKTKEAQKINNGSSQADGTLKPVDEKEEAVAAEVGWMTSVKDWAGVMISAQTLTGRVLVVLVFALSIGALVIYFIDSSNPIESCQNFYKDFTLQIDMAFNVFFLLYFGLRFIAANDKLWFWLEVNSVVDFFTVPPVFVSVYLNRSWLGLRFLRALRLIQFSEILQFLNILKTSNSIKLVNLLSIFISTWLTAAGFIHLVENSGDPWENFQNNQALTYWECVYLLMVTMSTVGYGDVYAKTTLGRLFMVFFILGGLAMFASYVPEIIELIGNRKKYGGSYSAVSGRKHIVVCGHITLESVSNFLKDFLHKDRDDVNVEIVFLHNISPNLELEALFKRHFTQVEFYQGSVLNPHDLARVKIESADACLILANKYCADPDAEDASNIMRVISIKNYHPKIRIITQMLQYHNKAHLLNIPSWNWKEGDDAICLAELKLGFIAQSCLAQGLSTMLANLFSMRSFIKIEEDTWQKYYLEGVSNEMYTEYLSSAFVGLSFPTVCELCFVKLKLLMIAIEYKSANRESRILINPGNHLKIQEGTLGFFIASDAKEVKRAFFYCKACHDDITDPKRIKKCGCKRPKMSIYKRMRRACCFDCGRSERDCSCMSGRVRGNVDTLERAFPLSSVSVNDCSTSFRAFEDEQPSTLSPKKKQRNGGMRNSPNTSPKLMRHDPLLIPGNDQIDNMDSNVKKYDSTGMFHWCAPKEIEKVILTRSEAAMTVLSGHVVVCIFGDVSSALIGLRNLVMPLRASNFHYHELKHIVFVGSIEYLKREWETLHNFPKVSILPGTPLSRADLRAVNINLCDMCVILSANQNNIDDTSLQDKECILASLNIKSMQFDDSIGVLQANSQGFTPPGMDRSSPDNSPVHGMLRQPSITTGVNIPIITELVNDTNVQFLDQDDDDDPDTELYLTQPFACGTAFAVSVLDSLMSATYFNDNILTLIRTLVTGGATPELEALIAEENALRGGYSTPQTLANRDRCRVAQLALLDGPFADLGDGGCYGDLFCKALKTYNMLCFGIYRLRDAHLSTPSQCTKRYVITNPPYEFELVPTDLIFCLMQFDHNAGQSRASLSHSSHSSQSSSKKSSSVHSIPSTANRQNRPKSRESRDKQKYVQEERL

For the compound `O=C(Nc1cc(Cl)ccc1-c1nnn[nH]1)c1cc(C(F)(F)F)cc(C(F)(F)F)c1` [Compound 4, N-[5-Chloro-2-(1H-tetrazol-5-yl)-phenyl]-3,5-bis-trifluoromethyl-benzamide], the melting point was 247 to 249 °C. Same read-out and setting: the same measure for `O=C(Nc1cc(Cl)ccc1-c1nnn[nH]1)c1ccc2ccccc2c1O` [Compound 8, 1-Hydroxy-naphthalene-2-carboxylic acid [5-chloro-2-(1H-tetrazol-5-yl)-phenyl]-amide]: 221 to 225 °C. For the compound `CCCN(CCC)S(=O)(=O)c1ccc(C(=O)Nc2cc(Cl)ccc2-c2nnn[nH]2)cc1` [Compound 12, N-[5-Chloro-2-(1H-tetrazol-5-yl)-phenyl]-4-dipropylsulfamoyl-benzamide], the “ΔVmax, maximal left shift of the BK activation curve” value in series [1] (BKCa channels expressed in Xenopus oocytes, 0.01-31.6 μM, sigmoidal logistic fit) is on record as −110 mV. In addition, the pEC50 in series [1] (BKCa channels expressed in Xenopus oocytes, ramp −120 to +120 mV, 0.01-31.6 μM, ΔV at control conductance level of +100 mV, sigmoidal logistic fit, read-out: EC50 for the left-shift of the BK activation curve (ΔV)) was 5.89. Further, in series [1] (increasing concentrations (0.01-31.6 μM) applied, 100 s each, ramp protocol), the “BK current level at depolarizing potentials” value is “marked increase in the current level at depolarizing potentials”.
